# Measurements as given in BindingDB's records for doi:10.1074/jbc.M113.479717 (University of Manchester, 2013).
# Assays:
# Test in all cases: Optical Titration Assay
# Conditions in all cases: pH 7
# [1] = target: Bifunctional cytochrome P450/NADPH--P450 reductase [A82F,F87V] (Bacillus megaterium, UniProt P14779, A82F/F87V)
# Procedure: (§1) Dissociation constants (Kd values) for binding of the substrates N-palmitoylglycine (NPG) and omeprazole (OMP) to WT and mutant BM3 heme domains were determined by UVvisible absorption titrations using ~1-4 μM protein in 100mMKPi, pH 7.0, at 25 °C (assay buffer) in 1-cm path length quartz cuvettes and as in our previous studies. Spectra were recorded for substrate-free enzymes and following addition of ligands during substrate titrations (typically 800 to 250 nm).
# [2] = target: Bifunctional cytochrome P450/NADPH--P450 reductase [A82F] (Bacillus megaterium, UniProt P14779, A82F)
# Chain of Bifunctional cytochrome P450/NADPH--P450 reductase [A82F] (P14779 whole entry A83F): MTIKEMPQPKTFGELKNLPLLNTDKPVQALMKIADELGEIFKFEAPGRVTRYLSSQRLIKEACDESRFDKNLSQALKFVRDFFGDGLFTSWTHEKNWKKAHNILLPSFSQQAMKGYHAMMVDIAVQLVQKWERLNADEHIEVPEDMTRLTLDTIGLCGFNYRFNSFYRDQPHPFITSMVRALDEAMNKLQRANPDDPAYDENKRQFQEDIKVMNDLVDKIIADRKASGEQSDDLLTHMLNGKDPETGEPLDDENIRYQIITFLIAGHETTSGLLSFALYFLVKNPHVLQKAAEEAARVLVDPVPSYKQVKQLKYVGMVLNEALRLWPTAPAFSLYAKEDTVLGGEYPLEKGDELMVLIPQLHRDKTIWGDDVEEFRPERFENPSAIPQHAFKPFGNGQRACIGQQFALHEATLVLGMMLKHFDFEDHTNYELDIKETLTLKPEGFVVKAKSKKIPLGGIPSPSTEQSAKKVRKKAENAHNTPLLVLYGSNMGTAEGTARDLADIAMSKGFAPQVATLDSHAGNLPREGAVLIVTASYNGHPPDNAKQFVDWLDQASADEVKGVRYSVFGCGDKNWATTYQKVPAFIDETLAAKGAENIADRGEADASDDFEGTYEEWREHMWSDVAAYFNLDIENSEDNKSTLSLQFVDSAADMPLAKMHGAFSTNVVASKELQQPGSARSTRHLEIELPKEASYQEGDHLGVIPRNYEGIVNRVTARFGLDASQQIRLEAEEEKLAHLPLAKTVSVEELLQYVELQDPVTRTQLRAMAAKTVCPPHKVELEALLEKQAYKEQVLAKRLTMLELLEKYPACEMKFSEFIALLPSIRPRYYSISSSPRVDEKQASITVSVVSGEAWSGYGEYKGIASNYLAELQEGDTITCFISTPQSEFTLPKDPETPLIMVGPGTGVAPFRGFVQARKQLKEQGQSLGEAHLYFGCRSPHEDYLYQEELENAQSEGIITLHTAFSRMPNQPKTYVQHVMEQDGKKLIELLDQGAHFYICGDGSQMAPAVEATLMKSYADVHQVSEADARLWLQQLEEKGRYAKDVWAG
# Procedure: as §1
# [3] = target: Bifunctional cytochrome P450/NADPH--P450 reductase [F87V] (Bacillus megaterium, UniProt P14779, F87V)
# Chain of Bifunctional cytochrome P450/NADPH--P450 reductase [F87V] (P14779 whole entry F88V): as the sequence (P14779 whole entry A83F) above, with F83A, F88V counted along it
# Procedure: as §1
# [4] = target: T1, Bifunctional cytochrome P450/NADPH--P450 reductase (Bacillus megaterium, UniProt P14779)
# T1 sequence (P14779 whole entry): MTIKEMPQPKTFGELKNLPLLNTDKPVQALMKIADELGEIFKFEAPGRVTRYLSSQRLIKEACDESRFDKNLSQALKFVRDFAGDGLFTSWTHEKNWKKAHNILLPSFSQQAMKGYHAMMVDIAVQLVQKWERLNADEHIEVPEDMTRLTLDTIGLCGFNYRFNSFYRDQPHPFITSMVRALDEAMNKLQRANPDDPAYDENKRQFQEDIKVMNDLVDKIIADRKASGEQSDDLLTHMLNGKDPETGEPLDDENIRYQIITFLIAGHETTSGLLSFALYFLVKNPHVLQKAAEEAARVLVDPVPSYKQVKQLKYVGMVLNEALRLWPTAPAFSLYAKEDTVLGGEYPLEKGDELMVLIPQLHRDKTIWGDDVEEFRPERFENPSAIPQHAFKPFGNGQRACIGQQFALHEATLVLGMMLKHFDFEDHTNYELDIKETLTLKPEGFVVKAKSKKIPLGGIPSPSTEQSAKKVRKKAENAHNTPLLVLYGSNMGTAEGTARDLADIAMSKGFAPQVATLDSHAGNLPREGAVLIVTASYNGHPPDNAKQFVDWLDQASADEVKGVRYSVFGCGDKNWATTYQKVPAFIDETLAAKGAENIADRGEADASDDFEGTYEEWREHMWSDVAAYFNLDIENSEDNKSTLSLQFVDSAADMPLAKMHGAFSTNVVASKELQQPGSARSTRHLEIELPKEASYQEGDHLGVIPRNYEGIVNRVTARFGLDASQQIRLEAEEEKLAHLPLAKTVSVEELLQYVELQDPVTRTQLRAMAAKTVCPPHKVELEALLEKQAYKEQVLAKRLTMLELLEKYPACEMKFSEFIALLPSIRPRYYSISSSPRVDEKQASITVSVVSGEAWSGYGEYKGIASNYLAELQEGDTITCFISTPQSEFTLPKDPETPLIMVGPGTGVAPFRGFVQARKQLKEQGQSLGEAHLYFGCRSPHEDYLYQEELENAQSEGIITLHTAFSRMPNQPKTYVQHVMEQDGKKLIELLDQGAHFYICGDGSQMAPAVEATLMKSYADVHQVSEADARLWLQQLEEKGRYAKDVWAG
# Procedure: as §1
# Chain of Bifunctional cytochrome P450/NADPH--P450 reductase [A82F,F87V] (P14779 whole entry A83F/F88V, the tested form may be a part): as the sequence (P14779 whole entry A83F) above, with F88V counted along it
smiles,measurement,setting,value
COc1ccc2[nH]c([S+]([O-])Cc3ncc(C)c(OC)c3C)nc2c1 (configuration not stated) [H-168/68],Kd,[1],0.212 µM
same,Kd,[2],1.67 µM
same,Kd,[3],49 µM
CCCCCCCCCCCCCCCC(=O)NCC(=O)O [N-palmitoylglycine (NPG)],Kd,[4],0.082 µM
same,Kd,[1],0.004 µM
same,Kd,[2],0.297 µM
same,Kd,[3],0.204 µM
